Measurements as given in US20170008888A1 (KYORIN PHARMACEUTICAL CO., LTD., priority 2014, published 2017).

Tests used:
BRD3 = biological target: T1, BRD3 (Homo sapiens, UniProt Q15059); assay: Bromodomain binding assay: BRD3
T1 construct: read out by qPCR of the phage DNA
Protocol: T7 phage strains displaying bromodomains were grown in parallel in 24-well blocks in an E. coli host derived from the BL21 strain. E. coli were grown to log-phase and infected with T7 phage from a frozen stock (multiplicity of infection=0.4) and incubated with shaking at 32° C. until lysis (90-150 minutes). The lysates were centrifuged (5,000×g) and filtered (0.2 μm) to remove cell debris. […] The liganded beads were blocked with excess biotin and washed with blocking buffer (SeaBlock (Pierce), 1% BSA, 0.05 Tween 20, 1 mM DTT) to remove unbound ligand and to reduce non-specific phage binding. […] Test compounds (T62 and 46) were prepared as 1000× stocks in 100% DMSO and subsequently diluted 1:10 in monoethylene glycol (MEG) to create stocks at 100× the screening concentration (resulting stock solution is 10% DMSO/90% MEG). The compounds were then diluted directly into the assays such that the final concentration of DMSO and MEG were 0.1% and 0.9%, respectively. All reactions were performed in polystyrene 96-well plates in a final volume of 0.135 ml. […] The bromodomain concentration in the eluates was measured by qPCR. Compounds were assayed for binding activity against a panel of 40 bromodomain-containing proteins.

[1] = system: DNFB-induced ear inflammation mouse model; assay: DNFB-induced ear inflammation mouse model: cytokine concentrations in ear tissue; assay type: in vivo, mouse (Balb/c)
Protocol: In vivo T-cell mediated immune response was examined in a mouse model of CHS using the hapten dinitrofluorobenzene (DNFB) as the induction agent. […] On Days 0 and 1 (sensitization), 20 μL of 0.5% v/v DNFB in acetone:olive oil (4:1) was applied to each hindpaw of 8 week old male mice (Balb/c, Charles River Laboratories; 10 mice per group unless otherwise noted). On Day 5 (elicitation) 10 μL of 0.2% v/v DNFB in acetone: olive oil (4:1) was applied to the dorsal surface of the right ear of each animal; 10 μL of acetone: olive oil (4:1) was applied to the dorsal surface of the left ear as control. Treatments were administered by group as indicated in the table below; on days when DNFB was used, the QD and the morning dose of BID as appropriate were administered 30 minutes-1 hr. prior to DNFB application. […] Approximately 24 hours after elicitation (Day 6), a 7 mm tissue punch from the central portion of both ears was collected and wet weights measured. The primary functional assessment was the difference in wet weights of the right (DNFB) vs. left (vehicle) ears compared to the vehicle treatment (Vehicle1-S) as an indicator of inflammation (Table 17). Ear tissue punches were flash frozen, stored at −70° C. and analyzed for cytokines (see below).
Cytokine concentrations after DNFB induction and treatment were analyzed in the weighed and flash frozen tissues of the right (DNFB) and left (control) 7 mm ear punches. The ear tissues were stored at −70° C. until prepared for analysis as follows. Left or right ear tissues from the same treatment group were pooled and crushed with mortar and pestle under liquid nitrogen. Tissue representing 7-8 ear punches by weight was homogenized in Buffer A (50 mM HEPES pH 7.4, 100 mM NaCl) containing 1 tablet EDTA-free Protease Inhibitor (Thermo Fisher Scientific, Rockford, Ill.) per 10 mL, 1× Phosphatase Inhibitor Cocktail II (AG Scientific, San Diego, Calif.), and 1 mM PMSF (Sigma, St. Louis, Mo.). Homogenization was performed in Lysing Matrix D tubes (MP Biomedicals, Solon, Ohio), using the FastPrep-24 instrument (MP Biomedicals) at a speed setting of 6 for 4 cycles of 30 seconds, with cooling on ice in between cycles. The tubes were then centrifuged at 1,000×g for 10 min at 4° C. Supernatant was collected and briefly sonicated using the Microson probe sonicator at setting 3 (Misonix, Farmingdale, N.Y.) before centrifuging again at 10,000×g for 10 min at 4° C. The supernatant was ultracentrifuged at 100,000×g for 1 h at 4° C. in the Optima Max-E (Beckman Coulter, Indianapolis, Ind.) to separate soluble and membrane protein fractions. The soluble (supernatant) fraction was collected and protein concentrations determined using the Dc protein kit (Bio-Rad, Hercules, Calif.). Soluble ear proteins were analyzed in triplicate for cytokine response at a final protein concentration of 4 mg/ml using the Bio-Plex Pro Mouse Cytokine 23-Plex panel (Bio-Rad) as per manufacturer's protocols. Magnetic beads were read on the Bio-Plex MAGPIX multiplex reader instrument using the accompanying xPONENT 4.2 acquisition software (Bio-Rad Laboratories, Hercules, Calif.). Data were analyzed via the Bio-Plex Manager software v6.1 (Bio-Rad Laboratories). Response was calculated as a percentage of the cytokine concentrations measured in the right (DNFB) ears of vehicle 1 dosed (S regimen, i.e. dosed Day 0-5) mice (Table 18).

T1 sequence (Q15059 whole entry): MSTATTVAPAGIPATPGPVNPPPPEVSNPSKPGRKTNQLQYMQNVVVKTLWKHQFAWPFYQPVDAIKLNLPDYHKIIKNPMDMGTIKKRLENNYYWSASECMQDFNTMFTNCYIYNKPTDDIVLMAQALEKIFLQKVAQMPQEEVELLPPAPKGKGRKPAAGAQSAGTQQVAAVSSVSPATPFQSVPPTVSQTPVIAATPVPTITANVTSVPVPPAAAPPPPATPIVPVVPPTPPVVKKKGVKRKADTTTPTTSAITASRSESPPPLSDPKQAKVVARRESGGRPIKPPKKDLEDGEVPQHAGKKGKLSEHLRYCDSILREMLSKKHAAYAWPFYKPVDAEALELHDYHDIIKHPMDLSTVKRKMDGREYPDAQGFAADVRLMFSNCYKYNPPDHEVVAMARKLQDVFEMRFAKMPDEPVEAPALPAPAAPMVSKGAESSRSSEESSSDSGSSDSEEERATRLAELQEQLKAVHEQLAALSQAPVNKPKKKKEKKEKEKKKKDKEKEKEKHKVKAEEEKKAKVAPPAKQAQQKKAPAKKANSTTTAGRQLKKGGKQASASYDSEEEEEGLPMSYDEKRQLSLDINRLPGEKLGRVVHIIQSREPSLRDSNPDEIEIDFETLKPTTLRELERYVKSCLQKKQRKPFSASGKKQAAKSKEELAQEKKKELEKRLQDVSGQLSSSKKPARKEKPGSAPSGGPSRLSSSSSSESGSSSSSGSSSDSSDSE

CCOc1cc(C(=O)N2CCC(N3CCCC3)CC2)ccc1Nc1cc2c(cn1)N(C)C(=O)c1ccccc1N2C [Compound 46, 3-(2-Ethoxy-4-(4-(pyrrolidin-1-yl)piperidine-1-carbonyl)phenylamino)-5,11-dimethyl-5H-benzo[e]pyrido[3,4-b][1,4]diazepin-10(11H)-one]
Kd (BRD3): 33 nM
G-CSF: Mean % Cytokine Concentration in DNFB Treated Right Ears versus Vehicle 1-Dosed (S) Mice ([1]; 25 mg/kg, regimen E): 58%
GM-CSF: Mean % Cytokine Concentration in DNFB Treated Right Ears versus Vehicle 1-Dosed (S) Mice ([1]; 25 mg/kg, regimen E): 29%
IFN-γ: Mean % Cytokine Concentration in DNFB Treated Right Ears versus Vehicle 1-Dosed (S) Mice ([1]; 25 mg/kg, regimen E): 51%
IL-1α: Mean % Cytokine Concentration in DNFB Treated Right Ears versus Vehicle 1-Dosed (S) Mice ([1]; 25 mg/kg, regimen E): 128%
IL-1β: Mean % Cytokine Concentration in DNFB Treated Right Ears versus Vehicle 1-Dosed (S) Mice ([1]; 25 mg/kg, regimen E): 57%
IL-3: Mean % Cytokine Concentration in DNFB Treated Right Ears versus Vehicle 1-Dosed (S) Mice ([1]; 25 mg/kg, regimen E): 75%
IL-5: Mean % Cytokine Concentration in DNFB Treated Right Ears versus Vehicle 1-Dosed (S) Mice ([1]; 25 mg/kg, regimen E): 63%
IL-6: Mean % Cytokine Concentration in DNFB Treated Right Ears versus Vehicle 1-Dosed (S) Mice ([1]; 25 mg/kg, regimen E): 53%
IL-12 (p40): Mean % Cytokine Concentration in DNFB Treated Right Ears versus Vehicle 1-Dosed (S) Mice ([1]; 25 mg/kg, regimen E): 81%
IL-13: Mean % Cytokine Concentration in DNFB Treated Right Ears versus Vehicle 1-Dosed (S) Mice ([1]; 25 mg/kg, regimen E): 79%
IL-17A: Mean % Cytokine Concentration in DNFB Treated Right Ears versus Vehicle 1-Dosed (S) Mice ([1]; 25 mg/kg, regimen E): 53%
KC: Mean % Cytokine Concentration in DNFB Treated Right Ears versus Vehicle 1-Dosed (S) Mice ([1]; 25 mg/kg, regimen E): 30%
MCP-1: Mean % Cytokine Concentration in DNFB Treated Right Ears versus Vehicle 1-Dosed (S) Mice ([1]; 25 mg/kg, regimen E): 37%
MIP-1α: Mean % Cytokine Concentration in DNFB Treated Right Ears versus Vehicle 1-Dosed (S) Mice ([1]; 25 mg/kg, regimen E): 62%
MIP-1β: Mean % Cytokine Concentration in DNFB Treated Right Ears versus Vehicle 1-Dosed (S) Mice ([1]; 25 mg/kg, regimen E): 44%
RANTES: Mean % Cytokine Concentration in DNFB Treated Right Ears versus Vehicle 1-Dosed (S) Mice ([1]; 25 mg/kg, regimen E): 55%
TNF-α: Mean % Cytokine Concentration in DNFB Treated Right Ears versus Vehicle 1-Dosed (S) Mice ([1]; 25 mg/kg, regimen E): 67%
G-CSF: Mean % Cytokine Concentration in DNFB Treated Right Ears versus Vehicle 1-Dosed (S) Mice ([1]; 60 mg/kg, regimen E): 36%
GM-CSF: Mean % Cytokine Concentration in DNFB Treated Right Ears versus Vehicle 1-Dosed (S) Mice ([1]; 60 mg/kg, regimen E): 0%
IFN-γ: Mean % Cytokine Concentration in DNFB Treated Right Ears versus Vehicle 1-Dosed (S) Mice ([1]; 60 mg/kg, regimen E): 25%
IL-1α: Mean % Cytokine Concentration in DNFB Treated Right Ears versus Vehicle 1-Dosed (S) Mice ([1]; 60 mg/kg, regimen E): 120%
IL-1β: Mean % Cytokine Concentration in DNFB Treated Right Ears versus Vehicle 1-Dosed (S) Mice ([1]; 60 mg/kg, regimen E): 32%
IL-3: Mean % Cytokine Concentration in DNFB Treated Right Ears versus Vehicle 1-Dosed (S) Mice ([1]; 60 mg/kg, regimen E): 53%
IL-5: Mean % Cytokine Concentration in DNFB Treated Right Ears versus Vehicle 1-Dosed (S) Mice ([1]; 60 mg/kg, regimen E): 23%
IL-6: Mean % Cytokine Concentration in DNFB Treated Right Ears versus Vehicle 1-Dosed (S) Mice ([1]; 60 mg/kg, regimen E): 31%
IL-12 (p40): Mean % Cytokine Concentration in DNFB Treated Right Ears versus Vehicle 1-Dosed (S) Mice ([1]; 60 mg/kg, regimen E): 64%
IL-13: Mean % Cytokine Concentration in DNFB Treated Right Ears versus Vehicle 1-Dosed (S) Mice ([1]; 60 mg/kg, regimen E): 61%
IL-17A: Mean % Cytokine Concentration in DNFB Treated Right Ears versus Vehicle 1-Dosed (S) Mice ([1]; 60 mg/kg, regimen E): 42%
KC: Mean % Cytokine Concentration in DNFB Treated Right Ears versus Vehicle 1-Dosed (S) Mice ([1]; 60 mg/kg, regimen E): 21%
MCP-1: Mean % Cytokine Concentration in DNFB Treated Right Ears versus Vehicle 1-Dosed (S) Mice ([1]; 60 mg/kg, regimen E): 31%
MIP-1α: Mean % Cytokine Concentration in DNFB Treated Right Ears versus Vehicle 1-Dosed (S) Mice ([1]; 60 mg/kg, regimen E): 42%
MIP-1β: Mean % Cytokine Concentration in DNFB Treated Right Ears versus Vehicle 1-Dosed (S) Mice ([1]; 60 mg/kg, regimen E): 31%
RANTES: Mean % Cytokine Concentration in DNFB Treated Right Ears versus Vehicle 1-Dosed (S) Mice ([1]; 60 mg/kg, regimen E): 37%
TNF-α: Mean % Cytokine Concentration in DNFB Treated Right Ears versus Vehicle 1-Dosed (S) Mice ([1]; 60 mg/kg, regimen E): 48%
G-CSF: Mean % Cytokine Concentration in DNFB Treated Right Ears versus Vehicle 1-Dosed (S) Mice ([1]; 60 mg/kg, regimen S): 27%
GM-CSF: Mean % Cytokine Concentration in DNFB Treated Right Ears versus Vehicle 1-Dosed (S) Mice ([1]; 60 mg/kg, regimen S): 0%
IFN-γ: Mean % Cytokine Concentration in DNFB Treated Right Ears versus Vehicle 1-Dosed (S) Mice ([1]; 60 mg/kg, regimen S): 22%
IL-1α: Mean % Cytokine Concentration in DNFB Treated Right Ears versus Vehicle 1-Dosed (S) Mice ([1]; 60 mg/kg, regimen S): 88%
IL-1β: Mean % Cytokine Concentration in DNFB Treated Right Ears versus Vehicle 1-Dosed (S) Mice ([1]; 60 mg/kg, regimen S): 23%
IL-3: Mean % Cytokine Concentration in DNFB Treated Right Ears versus Vehicle 1-Dosed (S) Mice ([1]; 60 mg/kg, regimen S): 45%
IL-5: Mean % Cytokine Concentration in DNFB Treated Right Ears versus Vehicle 1-Dosed (S) Mice ([1]; 60 mg/kg, regimen S): 5%
IL-6: Mean % Cytokine Concentration in DNFB Treated Right Ears versus Vehicle 1-Dosed (S) Mice ([1]; 60 mg/kg, regimen S): 20%
IL-12 (p40): Mean % Cytokine Concentration in DNFB Treated Right Ears versus Vehicle 1-Dosed (S) Mice ([1]; 60 mg/kg, regimen S): 49%
IL-13: Mean % Cytokine Concentration in DNFB Treated Right Ears versus Vehicle 1-Dosed (S) Mice ([1]; 60 mg/kg, regimen S): 47%
IL-17A: Mean % Cytokine Concentration in DNFB Treated Right Ears versus Vehicle 1-Dosed (S) Mice ([1]; 60 mg/kg, regimen S): 38%
KC: Mean % Cytokine Concentration in DNFB Treated Right Ears versus Vehicle 1-Dosed (S) Mice ([1]; 60 mg/kg, regimen S): 19%
MCP-1: Mean % Cytokine Concentration in DNFB Treated Right Ears versus Vehicle 1-Dosed (S) Mice ([1]; 60 mg/kg, regimen S): 27%
MIP-1α: Mean % Cytokine Concentration in DNFB Treated Right Ears versus Vehicle 1-Dosed (S) Mice ([1]; 60 mg/kg, regimen S): 29%
MIP-1β: Mean % Cytokine Concentration in DNFB Treated Right Ears versus Vehicle 1-Dosed (S) Mice ([1]; 60 mg/kg, regimen S): 24%
RANTES: Mean % Cytokine Concentration in DNFB Treated Right Ears versus Vehicle 1-Dosed (S) Mice ([1]; 60 mg/kg, regimen S): 27%
TNF-α: Mean % Cytokine Concentration in DNFB Treated Right Ears versus Vehicle 1-Dosed (S) Mice ([1]; 60 mg/kg, regimen S): 39%

CCOc1cc(C(=O)N[C@H]2CC[C@H](O)CC2)ccc1Nc1cc2c(cn1)N(C)C(=O)c1ccccc1N2C [Compound T62]
Kd (BRD3): 110 nM
